Assay results: patent US6653342B2, “13-substituted milbemycin derivatives, their preparation and their use against insects and other pests” (Sankyo Company, Limited, priority 2000, dated 2003)
Where “and” joins values, the source holds several entries; their conditions need not be identical. Equal entries are not always repeated.

Key:
cat fleas [1] = assay: Test on insecticidal effect against cat fleas (Test Example 12, serum feeding through Parafilm); type: in vivo; details: 1 ppm in bovine serum, 37° C., after 48 hours, corrected by control group
Experimental: (§1) A test container wherein the living space of fleas was isolated from bovine serum by use of Parafilm™ (obtainable from Aldrich Chemical Co. Ltd.), which is usually used as an artificial skin, was prepared. A compound to be tested was added to the bovine serum in an amount sufficient for its concentration to be 1 ppm, and the fleas were allowed to suck the serum sample through the Parafilm™ at 37° C. Each group consisted of 20 fleas. […] By counting the dead fleas in a control group without a test compound, the mortality was corrected.

[2] = system: whipworms (Trichuris vulpis); assay: Test on effect against whipworms in naturally infected dogs (Test Example 6); type: in vivo; details: dogs naturally infected with whipworm, one line per dog
Experimental: (§2) For each of these three parasites, the number of eggs per gram (EPG) of dog faeces excreted was measured before, and 7 to 9 days after, administration of the test compound. The number of worms excreted in the faeces of the dog (WEF) between administration of the test compound and the end of the test was measured. Upon completion of the test, each of the test dogs was subjected to post mortem to count the number of surviving worms in the digestive tract (SWDT).

[3] = system: roundworms (Toxocara canis); assay: Test on effect against roundworms in naturally infected dogs (Test Example 4); type: in vivo; details: dogs naturally infected with roundworm, one line per dog
Experimental: as §2

[4] = system: Southern root-knot nematode; assay: Test on insecticidal effect against Southern root-knot nematode, cucumber on agar plate (Test Example 10); type: in vivo; details: 1000 ppm solution on filter paper disks
Experimental: An agar plate (80 ml: containing 1.25 ppm of kanamycin, 1.25 ppm of streptomycin and 0.8585 ppm of penicillin) was prepared in a container (70×70×20 mm). The plate was planted with a cucumber in the cotyledon stage of development. […] One of the thus-treated paper disks was put into the agar plate and two further treated paper disks were laid over the cotyledon.
After treatment, the container was covered with an acrylic plate to prevent water evaporation. Four days later, about 2.5 ml of a suspension containing 500 second-stage larvae of Southern root-knot nematode were added dropwise to the agar plate. Ten days after addition of the larvae, the number of galls of nematodes was estimated. Each test was conducted at a temperature of 25° C. and a humidity of 65%. “Untreated” in this test is a control in which water was used to soak the filter paper instead of the test compound solution.
The following criteria were used to judge the results obtained:
0: equal to the treatment-free group (51 to 150 galls)
1: slightly less than the treatment-free group (36 to 50 galls)
2: less than the treatment-free group (21 to 35 galls)
3: markedly less than the treatment-free group (0 to 20 galls)

cat fleas [5] = assay: Test on elimination of fleas from dogs (Test Examples 2 and 3); type: in vivo, Ctenocephalides felis; details: beagles
Experimental: Beagles provided for the test were infected with cat fleas prior to the commencement of the test. The number of fleas collected from the surface of the body of the dog three days after infection was counted and an infection ratio, calculated as the ratio of the fleas counted three days after infection to the initial number used to infect the dog, was determined for each dog.
The resulting test solution was administered dropwise to the interscapular region of each of four test beagles (4 to 7 months old) at a dose of 5 mg/kg body weight. On Day 7, Day 21 and Day 28 after administration of the test compound, each dog was infected with 100 cat fleas. The number of fleas collected from the surface of the bodies of the dogs three days after infection was counted. The number of fleas obtained before and after administration was determined to give an elimination ratio.
Thus, even 28 days after administration of the test compound, the elimination ratio was 100%.

cat fleas [6] = assay: whole plant or invertebrate; type: in vivo; details: 1 ppm in bovine serum sucked through Parafilm at 37° C., dead fleas after 48 hours, 20 fleas per group, corrected by control group
Experimental: as §1

[7] = system: Perforating Scabies (Sarcoptes scabiei); assay: Test on effect against perforating scabies, naturally infected cat (Test Example 7); type: in vivo
Experimental: (§3) Dogs and cats naturally infected with scabies were provided for the test. […] This was administered at a rate of 5 mg/kg body weight to a test animal in its poll region. The epidermis was scraped off the test animal from its ears and limbs before administration and then three weeks after administration of the test compound. The epidermis thus obtained was then charged in a 10% potassium hydroxide solution and the number of worm bodies and eggs was observed microscopically.

[8] = system: hookworms (Ancylostoma caninum); assay: Test on effect against hookworms in naturally infected dogs (Test Example 5); type: in vivo; details: dogs naturally infected with hookworm, one line per dog
Experimental: as §2

microfilariae (mf) = assay: Test on activity against microfilariae in culture with or without neutrophils (Test Example 8); details: 37° C., 5% CO2, compared to broth containing mf only
[9] = system: Perforating Scabies (Sarcoptes scabiei); assay: Test on effect against perforating scabies, naturally infected dog (Test Example 7); type: in vivo
Experimental: as §3

[10] = 5 mg/kg dropwise to poll region
[11] = 5 mg/kg to poll region, epidermis scraped from ears and limbs, counted microscopically

## CCC1OC2(CCC1C)CC1CC(CC=C(C)C(OC(=O)C3(c4ccc(NC(=O)C(F)(F)F)cc4)CCC3)C(C)C=CC=C3COC4C(O)C(C)=CC(C(=O)O1)C34O)O2 (stereo not shown) [Example 18, 13-[1-(4-Trifluoroacetylaminophenyl)cyclobutanecarbonyloxy]-5-hydroxy-milbemycin A4]
Cat fleas [1]
  Mortality (%): 91.5%

## CCC1OC2(CCC1C)CC1CC(CC=C(C)C(OC(=O)C3(c4ccc(NS(C)(=O)=O)cc4)CCC3)C(C)C=CC=C3COC4C(O)C(C)=CC(C(=O)O1)C34O)O2 (stereo not shown) [Example 17, 13-[1-(4-Methanesulfonylaminophenyl)cyclobutanecarbonyloxy]-5-hydroxy-milbemycin A4]
Cat fleas [1]
  Mortality (%): 94.9%

## CCC1OC2(CCC1C)CC1CC(CC=C(C)C(OC(=O)C3(c4ccc(NC(=O)COC)cc4)CCC3)C(C)C=CC=C3COC4C(O)C(C)=CC(C(=O)O1)C34O)O2 (stereo not shown) [Example 15, 13-[1-(4-Methoxyacetylaminophenyl)cyclobutanecarbonyloxy]-5-hydroxy-milbemycin A4]
Cat fleas [1]
  Mortality (%): 100%

## C#CCCC(=O)Nc1ccc(C2(C(=O)OC3C(C)=CCC4CC(CC5(CCC(C)C(CC)O5)O4)OC(=O)C4C=C(C)C(O)C5OCC(=CC=CC3C)C45O)CCC2)cc1 (stereo not shown) [Example 19, 13-[1-(4-Pentynoylaminophenyl)cyclobutanecarbonyloxy]-5-hydroxymilbemycin A4]
Cat fleas [1]
  Mortality (%): 90.7%

## CCC1OC2(CCC1C)CC1CC(CC=C(C)C(OC(=O)C3(c4ccc(NC(=O)COC)cc4)CCCC3)C(C)C=CC=C3COC4C(O)C(C)=CC(C(=O)O1)C34O)O2 (stereo not shown) [Example 1(c), 13-[1-(4-Methoxyacetylaminophenyl)cyclopentanecarbonyloxy]-5-hydroxy-milbemycin A4]
[2]; [10]
  EPG after 7-9 Days: 0 eggs per gram
[2]; 5 mg/kg dropwise
  Elimination ratio (%): 100%
[2]; 5 mg/kg dropwise, post mortem
  SWDT (number of surviving worms in the digestive tract): 0
[3]; 5 mg/kg dropwise to poll region, eggs per gram of faeces
  EPG after 7-9 Days: 0 eggs per gram
[3]; 5 mg/kg dropwise, between administration and end of test, 5 mg/kg
  WEF (number of worms excreted in the faeces): 3 and 5 and 8
[3]; 5 mg/kg dropwise
  Elimination ratio (%): 100%
[3]; 5 mg/kg dropwise, post mortem
  SWDT (number of surviving worms in the digestive tract): 0
[4]; graded by number of galls ten days after addition of larvae
  Effect (result): 3 (markedly less than the treatment-free group (0 to 20 galls))
[4]; ten days after addition of 500 second-stage larvae, 25° C., humidity 65%
  Number of galls: 6
Cat fleas [5]; 5 mg/kg body weight dropwise to interscapular region (10% w/v solution), infected with 100 cat fleas 28 days after administration, counted three days after infection
  elimination ratio: 100%
Cat fleas [5]; 5 mg/kg dropwise, infection with 100 cat fleas on each of Day 7, Day 21 and Day 28 after administration
  number of fleas collected from the surfaces of the bodies of the dogs three days after infection: no fleas were collected
Cat fleas [6]
  Mortality (%): 90.2%
[7]; [11]
  After administration (three weeks later) Egg: 0
  After administration (three weeks later) Worm body: 0
[7]; 5 mg/kg, after three weeks
  effects against scabies: 100%
  oviposition preventing effects: 100%
[8]; [10]
  EPG after 7-9 Days: 0 eggs per gram
[8]; 5 mg/kg dropwise
  Elimination ratio (%): 100%
[8]; 5 mg/kg dropwise, post mortem
  SWDT (number of surviving worms in the digestive tract): 0
Microfilariae (mf); mf + neutrophils + test compound (100 ng/ml)
  Percentage reduction of microfilariae: 53.8%
Microfilariae (mf); mf + test compound (100 ng/ml), no neutrophils
  Percentage reduction of microfilariae: 0.02%
[9]; [11]
  After administration (three weeks later) Egg: 0
  After administration (three weeks later) Worm body: 9
[9]; 5 mg/kg, after three weeks
  oviposition of scabies: prevented completely

## CCC1OC2(CCC1C)CC1CC(CC=C(C)C(OC(=O)C3(c4ccc(NC(C)=O)cc4)CCC3)C(C)C=CC=C3COC4C(O)C(C)=CC(C(=O)O1)C34O)O2 (stereo not shown) [Example 16, 13-[1-(4-Acetylaminophenyl)cyclobutanecarbonyloxy]-5-hydroxymilbemycin A4]
Cat fleas [1]
  Mortality (%): 92.9%

## CC[C@H]1O[C@]2(CC[C@@H]1C)C[C@@H]1C[C@@H](C/C=C(\C)[C@H](OC(=O)C3(c4ccccc4)CCCC3)[C@@H](C)/C=C/C=C3\CO[C@@H]4[C@H](O)C(C)=C[C@@H](C(=O)O1)[C@]34O)O2 [Comparative Compound A, reference compound]
Cat fleas [1]; Ctenocephalides felis
  mortality at 1 ppm: 2.4%
Cat fleas [6]; Ctenocephalides felis
  mortality at 1 ppm: 2.4%
